# Data as given in patent US12594254B2, “Intranasal administration of n-acetylcysteine and uses thereof” (Neuronasal, Inc., priority 2022, dated 2026).
# Experiments:
# Assay type in all cases: in vivo, human
# [1] = Blood PK of total NAC and GSH after a single dose of IN NAC in healthy participants
# Experimental: (§1) Various assays were designed and tested assess the feasibility of IN NAC administration for direct nose-to-brain delivery as shown and described for FIGS. 1-4. Assays include studies in healthy participants using ^1H-MRS assessment of change from baseline in NAC-derived metabolic markers in three brain regions (occipital cortex, striatum, and DLPF), following a single dose of 196 mg to 200 mg IN NAC at 1, 3, and 6 hours.
# Concentrations of the targeted metabolites were reported for various time points to assess total NAC and GSH concentrations. Mean (±standard error [SE]) of blood PK data were plotted on linear and semi logarithmic scales (FIGS. 1-2).
# [2] = system: regional brain GSH/creatine ratio; test: 1H-MRS change from baseline of regional brain GSH/Creatine ratio after single dose IN NAC
# Experimental: as §1
# (§2) Magnetic resonance (MR) spectra of NAC-derived brain metabolites in three brain regions (occipital cortex, striatum, and DLPF) at baseline and 1, 3, and 6 hours following IN NAC were assessed. Percentage change from Baseline of GSH/Creatine and N-Acetylaspartate (NAA)/Creatine in the three regions by treatment group were plotted (FIGS. 3-4).
# [3] = system: NAA/creatine ratio; test: 1H-MRS change from baseline of regional brain NAA/Creatine ratio after single dose IN NAC; settings: for increase of NAA/creatine ratio post-dose: dorsolateral prefrontal cortex
# Experimental: as §1, §2
compound,measurement,setting,value
"CC(=O)N[C@@H](CS)C(=O)O [NAC, N-acetylcysteine]",mean percentage change from Baseline in NAC (blood),"[1]; 196 mg IN NAC, APTAR 5 mL CPS Syringe, 1 hour post-dose",2881.66%
same,mean percentage change from Baseline in NAC (blood),"[1]; 196 mg IN NAC, APTAR 5 mL CPS Syringe, 3 hours post-dose",1158.20%
same,mean percentage change from Baseline in NAC (blood),"[1]; 196 mg IN NAC, APTAR 5 mL CPS Syringe, 6 hours post-dose",419.35%
same,mean percentage change from Baseline in NAC (blood),"[1]; 200 mg IN NAC, Teleflex MAD device, 1 hour post-dose",2379.60%
same,mean percentage change from Baseline in NAC (blood),"[1]; 200 mg IN NAC, Teleflex MAD device, 3 hours post-dose",1117.01%
same,mean percentage change from Baseline in NAC (blood),"[1]; 200 mg IN NAC, Teleflex MAD device, 6 hours post-dose",438.17%
same,effect on regional brain GSH (overall),"[2]; 196 mg IN NAC, APTAR 5 mL CPS Syringe, 1, 3 and 6 hour post-dose timepoints",failed to produce consistent elevation
same,effect on regional brain GSH (overall),"[2]; 200 mg IN NAC, Teleflex MAD device, 5 participants with analyzable MRS data",time- and region-dependent increase
same,increase of regional brain GSH/creatine ratio relative to pre-dose baseline,"[2]; dorsolateral prefrontal cortex (n=5), 200 mg IN NAC, Teleflex MAD device, 1 hour post-dose",~17%
same,increase of regional brain GSH/creatine ratio relative to pre-dose baseline,"[2]; dorsolateral prefrontal cortex (n=5), 200 mg IN NAC, Teleflex MAD device, 3 hours post-dose",~42%
same,increase of regional brain GSH/creatine ratio relative to pre-dose baseline,"[2]; dorsolateral prefrontal cortex (n=5), 200 mg IN NAC, Teleflex MAD device, 6 hours post-dose",~34%
same,increase of regional brain GSH/creatine ratio relative to pre-dose baseline,"[2]; dorsolateral prefrontal cortex, 196 mg IN NAC, APTAR 5 mL CPS Syringe (n=3), 1 hour",18%
same,decrease of regional brain GSH/creatine ratio relative to pre-dose baseline,"[2]; dorsolateral prefrontal cortex, 196 mg IN NAC, APTAR 5 mL CPS Syringe (n=3), 3 hours",71%
same,increase of regional brain GSH/creatine ratio relative to pre-dose baseline,"[2]; dorsolateral prefrontal cortex, 196 mg IN NAC, APTAR 5 mL CPS Syringe (n=3), 6 hours",4%
same,increase of regional brain GSH/creatine ratio relative to pre-dose baseline,"[2]; occipital cortex (n=5), 200 mg IN NAC, Teleflex MAD device, 1 hour post-dose",~25%
same,increase of regional brain GSH/creatine ratio relative to pre-dose baseline,"[2]; occipital cortex (n=5), 200 mg IN NAC, Teleflex MAD device, 3 hours post-dose",~49%
same,increase of regional brain GSH/creatine ratio relative to pre-dose baseline,"[2]; occipital cortex (n=5), 200 mg IN NAC, Teleflex MAD device, 6 hours post-dose",~21%
same,decrease of regional brain GSH/creatine ratio relative to pre-dose baseline,"[2]; occipital cortex, 196 mg IN NAC, APTAR 5 mL CPS Syringe (n=3), 1 hour",17%
same,increase of regional brain GSH/creatine ratio relative to pre-dose baseline,"[2]; occipital cortex, 196 mg IN NAC, APTAR 5 mL CPS Syringe (n=3), 3 hours",2%
same,increase of regional brain GSH/creatine ratio relative to pre-dose baseline,"[2]; occipital cortex, 196 mg IN NAC, APTAR 5 mL CPS Syringe (n=3), 6 hours",1%
same,increase of regional brain GSH/creatine ratio relative to pre-dose baseline,"[2]; striatum (n=4), 200 mg IN NAC, Teleflex MAD device, 1 hour post-dose",approximately 36%
same,increase of regional brain GSH/creatine ratio relative to pre-dose baseline,"[2]; striatum (n=4), 200 mg IN NAC, Teleflex MAD device, 3 hours post-dose",~20%
same,increase of regional brain GSH/creatine ratio relative to pre-dose baseline,"[2]; striatum (n=4), 200 mg IN NAC, Teleflex MAD device, 6 hours post-dose",~14%
same,increase of regional brain GSH/creatine ratio relative to pre-dose baseline,"[2]; striatum, 196 mg IN NAC, APTAR 5 mL CPS Syringe (n=3), 1 hour",2%
same,decrease of regional brain GSH/creatine ratio relative to pre-dose baseline,"[2]; striatum, 196 mg IN NAC, APTAR 5 mL CPS Syringe (n=3), 3 hours",11%
same,change of regional brain GSH/creatine ratio relative to pre-dose baseline,"[2]; striatum, 196 mg IN NAC, APTAR 5 mL CPS Syringe (n=3), 6 hours",extreme variability
same,increase of NAA/creatine ratio post-dose,"[3]; 196 mg dose group, second of two values, time point unclear (1, 3 and 6 hours named)",9.0%
same,increase of NAA/creatine ratio post-dose,"[3]; 196 mg dose group, time point unclear (1, 3 and 6 hours named)",7.9%
same,increase of NAA/creatine ratio post-dose,"[3]; 200 mg dose group, 1 hour post-dose",4.5%
same,increase of NAA/creatine ratio post-dose,"[3]; 200 mg dose group, 3 hours post-dose",6.0%
same,increase of NAA/creatine ratio post-dose,"[3]; 200 mg dose group, 6 hours post-dose",3.8%
same,post-dose changes in the NAA/creatine ratio relative to baseline,"[3]; striatum and occipital cortex, both dose groups (200 mg and 196 mg), described as minimal",≤ 2.5%
same,post-dose changes in the NAA/creatine ratio,"[3]; striatum, 6 hours, 196 mg cohort",highly variable changes
